# Measured values: ChEMBL document CHEMBL4507293 (2021)
# Legend:
# [1] = target: 5-hydroxytryptamine receptor 1D (Homo sapiens) (UniProt P28221); conditions: Compound concentration 10.0 uM
# [2] = target: Mitogen-activated protein kinase kinase kinase 19 (Homo sapiens) (UniProt Q56UN5); conditions: Compound concentration 100.0 nM
# [3] = target: T1, Muscarinic acetylcholine receptor M4 (Homo sapiens) (UniProt P08173); conditions: Compound concentration 10.0 uM
# T1 sequence (whole entry): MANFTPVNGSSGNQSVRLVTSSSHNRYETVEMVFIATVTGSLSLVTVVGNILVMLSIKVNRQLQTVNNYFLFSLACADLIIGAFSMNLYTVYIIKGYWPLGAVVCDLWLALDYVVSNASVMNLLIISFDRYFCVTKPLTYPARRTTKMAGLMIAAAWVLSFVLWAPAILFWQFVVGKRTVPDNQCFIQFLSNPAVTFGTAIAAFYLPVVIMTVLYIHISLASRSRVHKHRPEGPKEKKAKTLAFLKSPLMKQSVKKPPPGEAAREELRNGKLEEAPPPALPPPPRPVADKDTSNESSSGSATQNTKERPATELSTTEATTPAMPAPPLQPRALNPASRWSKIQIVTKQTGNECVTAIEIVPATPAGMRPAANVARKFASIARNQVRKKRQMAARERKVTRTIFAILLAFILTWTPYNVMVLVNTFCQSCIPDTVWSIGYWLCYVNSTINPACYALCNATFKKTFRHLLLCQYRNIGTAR
# [4] = target: 3',5'-cyclic-AMP phosphodiesterase 4A (Homo sapiens, UniProt P27815); assay: Biochemical assay (PDE4A)
# [5] = target: Ribosomal protein S6 kinase alpha-1 (Homo sapiens) (UniProt Q15418); conditions: Compound concentration 100.0 nM
# [6] = target: Phosphatidylinositol 4-phosphate 5-kinase type-1 alpha (Homo sapiens) (UniProt Q99755); conditions: Compound concentration 100.0 nM
# [7] = target: Tyrosine-protein kinase ABL1 (Homo sapiens) (UniProt P00519); conditions: Compound concentration 100.0 nM
# Chain of Tyrosine-protein kinase ABL1 (Homo sapiens) (P00519 whole entry, the tested form may be a part): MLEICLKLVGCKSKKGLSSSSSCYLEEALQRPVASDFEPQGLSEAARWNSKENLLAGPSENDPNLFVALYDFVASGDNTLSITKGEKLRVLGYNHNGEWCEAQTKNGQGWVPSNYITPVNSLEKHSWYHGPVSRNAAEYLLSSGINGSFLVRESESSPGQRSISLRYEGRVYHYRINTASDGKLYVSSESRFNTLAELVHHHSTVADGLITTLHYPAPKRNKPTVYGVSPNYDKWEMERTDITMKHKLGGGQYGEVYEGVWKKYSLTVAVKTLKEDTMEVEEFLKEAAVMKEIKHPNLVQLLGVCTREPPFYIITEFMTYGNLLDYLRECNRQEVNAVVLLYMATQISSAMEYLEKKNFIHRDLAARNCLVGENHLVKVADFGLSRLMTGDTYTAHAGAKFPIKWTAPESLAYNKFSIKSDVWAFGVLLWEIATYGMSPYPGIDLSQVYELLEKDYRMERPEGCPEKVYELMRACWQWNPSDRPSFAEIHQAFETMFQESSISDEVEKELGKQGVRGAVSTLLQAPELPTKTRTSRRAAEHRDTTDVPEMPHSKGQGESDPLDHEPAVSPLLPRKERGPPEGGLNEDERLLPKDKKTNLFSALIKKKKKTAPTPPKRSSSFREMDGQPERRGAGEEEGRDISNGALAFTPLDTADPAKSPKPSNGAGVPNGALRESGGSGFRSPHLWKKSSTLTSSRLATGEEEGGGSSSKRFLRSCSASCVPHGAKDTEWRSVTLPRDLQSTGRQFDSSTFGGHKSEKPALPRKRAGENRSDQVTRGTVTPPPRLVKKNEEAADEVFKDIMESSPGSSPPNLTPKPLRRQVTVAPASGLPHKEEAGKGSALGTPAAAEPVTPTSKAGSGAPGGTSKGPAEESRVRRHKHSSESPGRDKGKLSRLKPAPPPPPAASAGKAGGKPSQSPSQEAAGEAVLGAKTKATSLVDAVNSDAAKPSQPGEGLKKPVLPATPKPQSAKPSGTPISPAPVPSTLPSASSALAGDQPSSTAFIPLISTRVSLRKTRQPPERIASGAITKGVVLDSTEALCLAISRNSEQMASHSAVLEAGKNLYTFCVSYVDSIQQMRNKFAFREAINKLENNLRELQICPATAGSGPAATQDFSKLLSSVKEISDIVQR
# [8] = target: LIM domain kinase 2 (Homo sapiens) (UniProt P53671); conditions: Compound concentration 100.0 nM
# Chain of LIM domain kinase 2 (Homo sapiens) (P53671 whole entry, looked up, the tested form may be a part): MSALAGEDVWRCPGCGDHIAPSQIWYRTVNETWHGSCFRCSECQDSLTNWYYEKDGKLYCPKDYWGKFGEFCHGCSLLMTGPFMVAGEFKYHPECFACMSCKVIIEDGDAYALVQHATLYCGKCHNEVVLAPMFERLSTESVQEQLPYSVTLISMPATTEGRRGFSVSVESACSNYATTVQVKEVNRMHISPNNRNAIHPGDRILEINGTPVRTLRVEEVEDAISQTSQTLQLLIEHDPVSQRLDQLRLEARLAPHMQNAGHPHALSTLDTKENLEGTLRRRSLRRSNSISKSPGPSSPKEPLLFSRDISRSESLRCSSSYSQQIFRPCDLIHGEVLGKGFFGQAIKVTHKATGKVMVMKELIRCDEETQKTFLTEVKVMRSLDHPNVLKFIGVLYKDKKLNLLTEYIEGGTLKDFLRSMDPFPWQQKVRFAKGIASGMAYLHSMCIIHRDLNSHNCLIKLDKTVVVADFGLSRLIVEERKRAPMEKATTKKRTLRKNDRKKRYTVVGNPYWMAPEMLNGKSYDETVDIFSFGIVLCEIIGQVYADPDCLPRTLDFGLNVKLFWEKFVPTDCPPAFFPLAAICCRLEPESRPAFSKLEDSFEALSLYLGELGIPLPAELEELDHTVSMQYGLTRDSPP
# [9] = target: Ephrin type-B receptor 1 (Homo sapiens) (UniProt P54762); conditions: Compound concentration 100.0 nM
# [10] = target: Ribosomal protein S6 kinase alpha-3 (Homo sapiens) (UniProt P51812); conditions: Compound concentration 100.0 nM
# Chain of Ribosomal protein S6 kinase alpha-3 (Homo sapiens) (P51812 whole entry): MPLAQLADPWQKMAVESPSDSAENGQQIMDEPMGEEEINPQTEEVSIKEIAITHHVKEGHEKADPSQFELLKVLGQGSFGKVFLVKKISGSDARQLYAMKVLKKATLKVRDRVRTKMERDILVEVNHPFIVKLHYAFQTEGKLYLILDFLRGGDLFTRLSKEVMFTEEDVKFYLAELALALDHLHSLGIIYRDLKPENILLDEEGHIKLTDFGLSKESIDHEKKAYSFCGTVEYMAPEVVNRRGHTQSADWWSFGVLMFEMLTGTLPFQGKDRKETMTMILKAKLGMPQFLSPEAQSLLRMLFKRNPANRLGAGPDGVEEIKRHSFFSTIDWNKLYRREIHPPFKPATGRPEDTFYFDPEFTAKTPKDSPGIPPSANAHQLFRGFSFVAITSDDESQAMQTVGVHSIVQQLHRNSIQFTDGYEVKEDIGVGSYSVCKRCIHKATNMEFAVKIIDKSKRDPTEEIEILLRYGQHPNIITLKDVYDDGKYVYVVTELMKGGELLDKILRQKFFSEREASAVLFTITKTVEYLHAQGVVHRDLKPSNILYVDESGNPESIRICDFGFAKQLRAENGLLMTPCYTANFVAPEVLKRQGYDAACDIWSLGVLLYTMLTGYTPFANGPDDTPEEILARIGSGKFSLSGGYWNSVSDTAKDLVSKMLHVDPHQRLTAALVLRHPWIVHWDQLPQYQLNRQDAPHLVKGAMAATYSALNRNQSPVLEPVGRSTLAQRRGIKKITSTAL
# [11] = target: Receptor tyrosine-protein kinase erbB-3 (Homo sapiens) (UniProt P21860); conditions: Compound concentration 100.0 nM
# [12] = target: Serine/threonine-protein kinase Nek1 (Homo sapiens) (UniProt Q96PY6); conditions: Compound concentration 100.0 nM
# [13] = target: 5'-AMP-activated protein kinase catalytic subunit alpha-1 (Homo sapiens) (UniProt Q13131); conditions: Compound concentration 100.0 nM
# [14] = target: Non-receptor tyrosine-protein kinase TYK2 (Homo sapiens) (UniProt P29597); conditions: Compound concentration 100.0 nM
# [15] = target: Casein kinase I isoform gamma-1 (Homo sapiens) (UniProt Q9HCP0); conditions: Compound concentration 100.0 nM
# [16] = target: Casein kinase I isoform gamma-3 (Homo sapiens) (UniProt Q9Y6M4); conditions: Compound concentration 100.0 nM
# [17] = target: Histamine H2 receptor (Homo sapiens) (UniProt P25021); conditions: Compound concentration 10.0 uM
# [18] = target: Ribosomal protein S6 kinase alpha-2 (Homo sapiens) (UniProt Q15349); conditions: Compound concentration 100.0 nM
# [19] = target: Mitogen-activated protein kinase kinase kinase kinase 5 (Homo sapiens) (UniProt Q9Y4K4); conditions: Compound concentration 100.0 nM
# [20] = target: cGMP-dependent protein kinase 2 (Homo sapiens) (UniProt Q13237); conditions: Compound concentration 100.0 nM
# [21] = target: Mitogen-activated protein kinase 8 (Homo sapiens) (UniProt P45983); conditions: Compound concentration 100.0 nM
# [22] = system: Serine/threonine-protein kinase B-raf (Homo sapiens), P15056 [V600E]; conditions: Compound concentration 100.0 nM
# [23] = system: Tyrosine-protein kinase ABL1 (Homo sapiens), P00519 [F317I]; conditions: Compound concentration 100.0 nM
# Chain of Tyrosine-protein kinase ABL1 (Homo sapiens), P00519 [F317I] (P00519 whole entry F317I): as the sequence (P00519 whole entry, the tested form may be a part) above, with F317I counted along it
# [24] = target: Tyrosine-protein kinase ABL1 (Homo sapiens) (UniProt P00519); conditions: Compound concentration 100.0 nM; remark: listed apart in the source
# [25] = target: Calcium/calmodulin-dependent protein kinase type II subunit alpha (Homo sapiens) (UniProt Q9UQM7); conditions: Compound concentration 100.0 nM
# [26] = target: Serine/threonine-protein kinase N2 (Homo sapiens) (UniProt Q16513); conditions: Compound concentration 100.0 nM
# [27] = target: MAP kinase-interacting serine/threonine-protein kinase 2 (Homo sapiens) (UniProt Q9HBH9); conditions: Compound concentration 100.0 nM
# [28] = target: Fibroblast growth factor receptor 3 (Homo sapiens) (UniProt P22607); conditions: Compound concentration 100.0 nM
# [29] = target: Ephrin type-B receptor 6 (Homo sapiens) (UniProt O15197); conditions: Compound concentration 100.0 nM
# [30] = target: Sigma intracellular receptor 2 (Homo sapiens, UniProt Q5BJF2); assay: GPCRScan assay: inhibition of Sigma 2; design: radioligand conc. used [nm] 5.0, parental cells HEKT
# [31] = target: Receptor tyrosine-protein kinase erbB-2 (Homo sapiens) (UniProt P04626); conditions: Compound concentration 100.0 nM
# [32] = target: Mitogen-activated protein kinase 7 (Homo sapiens) (UniProt Q13164); conditions: Compound concentration 100.0 nM
# [33] = target: Receptor-interacting serine/threonine-protein kinase 4 (Homo sapiens) (UniProt P57078); conditions: Compound concentration 100.0 nM
# Chain of Receptor-interacting serine/threonine-protein kinase 4 (Homo sapiens) (P57078 whole entry): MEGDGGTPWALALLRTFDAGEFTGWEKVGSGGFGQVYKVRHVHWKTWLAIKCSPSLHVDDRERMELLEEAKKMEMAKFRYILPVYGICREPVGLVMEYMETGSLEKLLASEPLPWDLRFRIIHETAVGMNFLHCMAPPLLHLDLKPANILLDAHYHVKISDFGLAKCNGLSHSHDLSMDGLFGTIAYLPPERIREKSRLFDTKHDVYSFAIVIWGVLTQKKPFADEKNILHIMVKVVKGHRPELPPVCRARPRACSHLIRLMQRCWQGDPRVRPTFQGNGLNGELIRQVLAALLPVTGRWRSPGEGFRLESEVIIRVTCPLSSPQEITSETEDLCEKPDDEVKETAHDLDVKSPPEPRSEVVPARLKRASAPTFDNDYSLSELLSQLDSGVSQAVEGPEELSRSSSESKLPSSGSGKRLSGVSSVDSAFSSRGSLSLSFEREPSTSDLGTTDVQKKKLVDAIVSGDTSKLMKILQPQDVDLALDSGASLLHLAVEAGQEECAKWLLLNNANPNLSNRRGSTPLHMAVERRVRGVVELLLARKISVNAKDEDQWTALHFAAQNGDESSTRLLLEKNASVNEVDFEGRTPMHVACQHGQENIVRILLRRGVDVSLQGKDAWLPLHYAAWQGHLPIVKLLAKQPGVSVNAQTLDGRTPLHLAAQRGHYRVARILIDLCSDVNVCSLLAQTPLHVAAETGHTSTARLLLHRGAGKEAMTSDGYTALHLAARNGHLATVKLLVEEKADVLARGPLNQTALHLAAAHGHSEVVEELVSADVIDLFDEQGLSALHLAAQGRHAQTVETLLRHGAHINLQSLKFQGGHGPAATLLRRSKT
# [34] = target: Fibroblast growth factor receptor 2 (Homo sapiens) (UniProt P21802); conditions: Compound concentration 100.0 nM
# [35] = target: Serine/threonine-protein kinase VRK2 (Homo sapiens) (UniProt Q86Y07); conditions: Compound concentration 100.0 nM
# [36] = target: Serine/threonine-protein kinase pim-3 (Homo sapiens) (UniProt Q86V86); conditions: Compound concentration 100.0 nM
# [37] = target: Delta-type opioid receptor (Homo sapiens) (UniProt P41143); conditions: Compound concentration 10.0 uM
# [38] = target: Protein kinase C iota type (Homo sapiens) (UniProt P41743); conditions: Compound concentration 100.0 nM
# [39] = target: ALK tyrosine kinase receptor (Homo sapiens) (UniProt Q9UM73); conditions: Compound concentration 100.0 nM
# Chain of ALK tyrosine kinase receptor (Homo sapiens) (Q9UM73 19-1620 limits assumed): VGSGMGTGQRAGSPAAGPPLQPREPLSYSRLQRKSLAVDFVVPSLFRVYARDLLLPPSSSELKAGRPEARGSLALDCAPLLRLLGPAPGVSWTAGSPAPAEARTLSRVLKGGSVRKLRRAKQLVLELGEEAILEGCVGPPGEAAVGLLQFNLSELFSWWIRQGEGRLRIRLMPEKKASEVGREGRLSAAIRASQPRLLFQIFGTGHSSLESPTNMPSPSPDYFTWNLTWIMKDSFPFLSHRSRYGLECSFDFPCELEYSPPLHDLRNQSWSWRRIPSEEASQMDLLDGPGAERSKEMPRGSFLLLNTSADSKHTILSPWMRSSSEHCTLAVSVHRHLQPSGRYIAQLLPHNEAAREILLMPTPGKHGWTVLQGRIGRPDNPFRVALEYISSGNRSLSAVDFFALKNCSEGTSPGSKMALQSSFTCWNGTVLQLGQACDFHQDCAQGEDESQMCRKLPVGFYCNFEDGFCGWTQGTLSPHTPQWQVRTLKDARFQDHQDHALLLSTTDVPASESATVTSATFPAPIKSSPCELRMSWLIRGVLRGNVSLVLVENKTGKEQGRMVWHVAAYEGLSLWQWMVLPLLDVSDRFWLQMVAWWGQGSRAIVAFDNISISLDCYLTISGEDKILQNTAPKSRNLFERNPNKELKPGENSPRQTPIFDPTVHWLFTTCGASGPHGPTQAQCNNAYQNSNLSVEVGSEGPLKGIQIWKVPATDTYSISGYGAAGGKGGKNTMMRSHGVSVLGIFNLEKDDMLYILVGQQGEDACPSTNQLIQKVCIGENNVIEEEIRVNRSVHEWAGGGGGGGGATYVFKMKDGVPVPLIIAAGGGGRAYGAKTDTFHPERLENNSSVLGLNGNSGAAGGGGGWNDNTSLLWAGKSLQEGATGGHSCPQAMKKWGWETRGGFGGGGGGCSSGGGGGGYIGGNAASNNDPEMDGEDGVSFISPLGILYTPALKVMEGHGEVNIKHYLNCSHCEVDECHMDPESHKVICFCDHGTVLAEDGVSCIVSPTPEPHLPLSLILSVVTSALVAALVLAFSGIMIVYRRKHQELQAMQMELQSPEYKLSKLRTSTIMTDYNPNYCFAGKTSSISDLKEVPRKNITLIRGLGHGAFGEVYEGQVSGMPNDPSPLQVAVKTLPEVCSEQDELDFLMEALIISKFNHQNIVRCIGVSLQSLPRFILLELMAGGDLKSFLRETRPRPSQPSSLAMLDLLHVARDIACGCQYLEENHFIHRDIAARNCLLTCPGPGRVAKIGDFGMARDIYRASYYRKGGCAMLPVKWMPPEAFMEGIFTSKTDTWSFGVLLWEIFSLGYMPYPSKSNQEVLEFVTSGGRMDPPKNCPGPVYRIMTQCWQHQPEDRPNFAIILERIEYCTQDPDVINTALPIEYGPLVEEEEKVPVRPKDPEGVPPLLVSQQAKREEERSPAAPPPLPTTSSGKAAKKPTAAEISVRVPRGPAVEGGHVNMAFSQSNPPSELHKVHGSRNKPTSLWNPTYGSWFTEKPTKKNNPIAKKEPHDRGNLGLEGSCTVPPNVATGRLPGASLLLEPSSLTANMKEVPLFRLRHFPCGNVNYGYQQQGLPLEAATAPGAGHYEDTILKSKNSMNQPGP
Compound,inhibition [1] [%],residual activity [2] [%],inhibition [3] [%],Ki [4],residual activity [5] [%],residual activity [6] [%],residual activity [7] [%],residual activity [8] [%],residual activity [9] [%],residual activity [10] [%],residual activity [11] [%],residual activity [12] [%],residual activity [13] [%],residual activity [14] [%],residual activity [15] [%],residual activity [16] [%],inhibition [17] [%],residual activity [18] [%],residual activity [19] [%],residual activity [20] [%],other results
COCCOc1nc(-c2ccc(Cl)nc2)nc2c1CN(C(=O)c1ncn3ccccc13)CC2 [THPP-1],8.09,100,2,5.9 µM (not active),100,100,68,100,100,100,65,100,100,100,100,100,-0.24,100,91,100,residual activity [21]: 100%; residual activity [22]: 100%; residual activity [23]: 100%; residual activity [24]: 60%; residual activity [25]: 100%; residual activity [26]: 55%; residual activity [27]: 100%; residual activity [28]: 100%; residual activity [29]: 78%; Ki [30]: 3.35 µM; residual activity [31]: 82%; residual activity [32]: 100%; residual activity [33]: 100%; residual activity [34]: 100%; residual activity [35]: 91%; residual activity [36]: 100%; inhibition [37]: 6.52%; residual activity [38]: 100%; residual activity [39]: 91%
CC(C)CC(=O)N1CCc2nc(-c3ccc(Br)cc3)nc(N(C)Cc3ccccc3)c2C1 [THPP-1-NC],22.6,100,3.58,9.83 µM (not active),93,100,66,100,100,94,73,100,100,100,100,100,3.39,100,93,100,residual activity [21]: 100%; residual activity [22]: 100%; residual activity [23]: 100%; residual activity [24]: 58%; residual activity [25]: 100%; residual activity [26]: 80%; residual activity [27]: 73%; residual activity [28]: 100%; residual activity [29]: 91%; Ki [30]: 0.708 µM; residual activity [31]: 82%; residual activity [32]: 100%; residual activity [33]: 100%; residual activity [34]: 100%; residual activity [35]: 77%; residual activity [36]: 100%; inhibition [37]: 8.22%; residual activity [38]: 100%; residual activity [39]: 91%
